Reference: patent US20150216182A1, “COMPOSITIONS AND METHODS OF THE ATTRACTION AND REPULSION OF INSECTS” (Olfactor Laboratories, Inc., priority 2012, published 2015)

Legend:
female mosquitoes = assay: whole plant or invertebrate; conditions: 2 h; for mortality at 200 µg/mL: read-out: % mortality with 0.2 mg/ml; for mortality at 2000 µg/mL: read-out: % mortality with 2 mg/ml
cpA neurons [1] = assay: extracellular single-sensillum electrophysiology: activation of cpA neuronal activity; conditions: for Class: Table 6, single compounds, increase over baseline cpA neuronal activity
cpA neurons [2] = assay: extracellular single-sensillum electrophysiology: inhibition of CO2-responsive (cpA) neuronal activity; conditions: for Class: Table 10, single compounds, percent reduction in cpA activity compared to baseline; for Class (inhibitor class of the individual component): Table 13, single component alone, Inh = inhibitor
larvae = assay: larvicidal activity assay; type: in vivo; conditions: 24 hour exposure, dead larvae / total larvae; for pest or weed control at 0.25 %: read-out: % Lethality with 0.25% compound conc.; for pest or weed control at 100 ppm: read-out: % Lethality at 100 ppm
Experimental: A 6-well plate (Corning Life Sciences, Tewksbury, Mass.) is used to test a compound's larvicidal activity. […] After a 24 hour exposure, the number of dead larvae are counted and recorded.
The results are presented in Table 17 as % lethality (the number of dead larvae divided by the total number of larvae).

Molecule | Class (cpA neurons [1]) | further results
CC(C)C(=O)OCC=Cc1ccccc1 [OLI0108, cinnamyl isobutyrate] | – | mortality at 200 µg/mL (female mosquitoes): 10%; mortality at 2000 µg/mL (female mosquitoes): 100%
CCCC(=O)OC(C)C(C)=O (centres unmarked) [OLI0039, butan-3-one-2yl butanoate] | Mild Activator (mild activators yield an increase in neuronal activity that is between 20 and 40 spk/sec over baseline neuronal activity) | –
CCCCC1OC(=O)CC1C (centres unmarked) [OLI0094, whiskey lactone] | – | Class (cpA neurons [2]): Mild Inhibitor (mild inhibitors (reducing activity by 20-40%))
COC(=O)CCC(=O)OC [OLI0040, dimethyl succinate] | Mild Activator (mild activators yield an increase in neuronal activity that is between 20 and 40 spk/sec over baseline neuronal activity) | –
CCOC(=O)CC(C)=O [OLI0022, ethylacetoacetate] | Moderate Activator (Moderate activators yield an increase in neuronal activity that is between 40 and 60 spk/sec over baseline neuronal activity) | mortality at 200 µg/mL (female mosquitoes): 0%; mortality at 2000 µg/mL (female mosquitoes): 0%; Comp A Class (cpA neurons [1]; Table 9, component A tested individually): Mod; Comp B Class (cpA neurons [1]; Table 9, component B tested individually): Mod; Class B (activator class of the individual component) (cpA neurons [1]; Table 15, single component alone, Mod Actv): Mod
Cc1cccc(C=O)c1 [OLI0060, m-tolualdehyde] | Mild Activator (mild activators yield an increase in neuronal activity that is between 20 and 40 spk/sec over baseline neuronal activity) | –
COc1cc(C)ccc1O [OLI0033, 2-methoxy-4-methylphenol] | Mild Activator (mild activators yield an increase in neuronal activity that is between 20 and 40 spk/sec over baseline neuronal activity) | –
CC/C=C\CCOC(=O)CCC [OLI0083, cis-3-hexenyl butyrate] | – | Class (cpA neurons [2]): Mild Inhibitor (mild inhibitors (reducing activity by 20-40%)); Class (inhibitor class of the individual component) (cpA neurons [2]): Mild
CCOCc1ccco1 [OLI0048, furfurylethylether] | Mild Activator (mild activators yield an increase in neuronal activity that is between 20 and 40 spk/sec over baseline neuronal activity) | –
CC(C=O)c1ccccc1 (centres unmarked) [OLI0034, 2-phenylpropionaldehyde] | Mild Activator (mild activators yield an increase in neuronal activity that is between 20 and 40 spk/sec over baseline neuronal activity) | –
CCc1ccc(C=O)cc1 [OLI0036, 4-ethylbenzaldehyde] | Mild Activator (mild activators yield an increase in neuronal activity that is between 20 and 40 spk/sec over baseline neuronal activity) | –
CCOC(=O)c1cccnc1 [OLI0085, ethyl nicotinate] | – | Class (cpA neurons [2]): Mild Inhibitor (mild inhibitors (reducing activity by 20-40%))
CC(=O)CC/C=C(\C)CCC=C(C)C [OLI0089, Geranylacetone] | – | Class (cpA neurons [2]): Mild Inhibitor (mild inhibitors (reducing activity by 20-40%)); Class (inhibitor class of the individual component) (cpA neurons [2]): Mild
CC(=O)c1cnccn1 [OLI0038, acetyl-2-pyrazine] | Mild Activator (mild activators yield an increase in neuronal activity that is between 20 and 40 spk/sec over baseline neuronal activity) | –
CC(C)=C1CC[C@@H](C)CC1=O [OLI0064, R-+ pulegone] | Mild Activator (mild activators yield an increase in neuronal activity that is between 20 and 40 spk/sec over baseline neuronal activity) | –
CCCC(=O)OC/C=C(\C)CCC=C(C)C [OLI0090, Geranylbutyrate] | – | Class (cpA neurons [2]): Mild Inhibitor (mild inhibitors (reducing activity by 20-40%))
CCCCCCC(=O)OCC [OLI0086, Ethylheptanoate] | – | Class (cpA neurons [2]): Mild Inhibitor (mild inhibitors (reducing activity by 20-40%))
CCC(=O)OCC(C)C [OLI0054, isobutyl propionate] | Mild Activator (mild activators yield an increase in neuronal activity that is between 20 and 40 spk/sec over baseline neuronal activity) | –
CCOC(=O)CC(C)C [OLI0046, ethylisovalerate] | Mild Activator (mild activators yield an increase in neuronal activity that is between 20 and 40 spk/sec over baseline neuronal activity) | –
O=C(C=Cc1ccccc1)OCCc1ccccc1 [OLI0103, phenethyl cinnamate] | – | mortality at 200 µg/mL (female mosquitoes): 5%; mortality at 2000 µg/mL (female mosquitoes): 25%; pest or weed control at 0.25 % (larvae; 0.25% compound): 0%; pest or weed control at 100 ppm (larvae; 100 ppm compound): 0%
O=Cc1ccccc1O [OLI0116, Salicylaldehyde] | – | mortality at 200 µg/mL (female mosquitoes): 0%; mortality at 2000 µg/mL (female mosquitoes): 0%
CCOC(=O)CC(C)O (centres unmarked) [OLI0042, ethyl 3-hydroxybutyrate] | Mild Activator (mild activators yield an increase in neuronal activity that is between 20 and 40 spk/sec over baseline neuronal activity) | mortality at 200 µg/mL (female mosquitoes): 0%; mortality at 2000 µg/mL (female mosquitoes): 0%; pest or weed control at 0.25 % (larvae; 0.25% compound): 0%; pest or weed control at 100 ppm (larvae; 100 ppm compound): 0%
COc1ccccc1C=O [OLI0061, o-anisaldehyde] | Mild Activator (mild activators yield an increase in neuronal activity that is between 20 and 40 spk/sec over baseline neuronal activity) | –

Molecule | Class (cpA neurons [1]) | further results
C/C=C/C(=O)OCC(C)C [OLI0055, isobutyl trans-2-butenoate] | Mild Activator (mild activators yield an increase in neuronal activity that is between 20 and 40 spk/sec over baseline neuronal activity) | –
CCCC(=O)OC(C)C [OLI0056, isopropyl butyrate] | Mild Activator (mild activators yield an increase in neuronal activity that is between 20 and 40 spk/sec over baseline neuronal activity) | –
COc1ccc(C=O)cc1OC [OLI0095, Veratraldehyde] | – | Class (cpA neurons [2]): Mild Inhibitor (mild inhibitors (reducing activity by 20-40%)); Class (inhibitor class of the individual component) (cpA neurons [2]): Mild
CC1=CC(C)C(C=O)CC1 (centres unmarked) [OLI0031, 2,4-dimethyl-3-cyclohexene-carboxaldehyde] | Mild Activator (mild activators yield an increase in neuronal activity that is between 20 and 40 spk/sec over baseline neuronal activity) | –
CC12CCC(CC1)C(C)(C)O2 [OLI0087, Eucalyptol] | – | Class (cpA neurons [2]): Mild Inhibitor (mild inhibitors (reducing activity by 20-40%))
CC(=O)OCC(C)C [OLI0053, isobutyl acetate] | Mild Activator (mild activators yield an increase in neuronal activity that is between 20 and 40 spk/sec over baseline neuronal activity) | –
CCCC(=O)CCC [OLI0050, heptanone-4] | Mild Activator (mild activators yield an increase in neuronal activity that is between 20 and 40 spk/sec over baseline neuronal activity) | –
ethyl-2,3,5(6)-dimethyl pyrazine [OLI0043] | Mild Activator (mild activators yield an increase in neuronal activity that is between 20 and 40 spk/sec over baseline neuronal activity) | –
Ultrazur [OLI0118] | – | % Lethality with 0.25% compound conc. (larvae; 0.25% compound): 100% lethal; % Lethality at 100 ppm (larvae; 100 ppm compound): 0% lethal
dipropylenglykol-monomethyl ether [OLI0041] | Mild Activator (mild activators yield an increase in neuronal activity that is between 20 and 40 spk/sec over baseline neuronal activity) | –
CCOC=O [OLI0044, ethylformate] | Mild Activator (mild activators yield an increase in neuronal activity that is between 20 and 40 spk/sec over baseline neuronal activity) | –
CC(=O)OCC=C(C)C [OLI0062, prenylacetate] | Mild Activator (mild activators yield an increase in neuronal activity that is between 20 and 40 spk/sec over baseline neuronal activity) | –
CC1=CC(=O)CC(C)(C)C1=O [OLI0037, 4-oxoisophorone] | Mild Activator (mild activators yield an increase in neuronal activity that is between 20 and 40 spk/sec over baseline neuronal activity) | –
CCOC(=O)C(C)C [OLI0045, ethylisobutyrate] | Mild Activator (mild activators yield an increase in neuronal activity that is between 20 and 40 spk/sec over baseline neuronal activity) | –
CCCCCCC=O [OLI0049, heptaldehyde] | Mild Activator (mild activators yield an increase in neuronal activity that is between 20 and 40 spk/sec over baseline neuronal activity) | –
CC(C)C(=O)OCC=Cc1ccccc1 [OLI0117, cinnamyl isobutyrate] | – | pest or weed control at 0.25 % (larvae; 0.25% compound): 100%; pest or weed control at 100 ppm (larvae; 100 ppm compound): 0%
Cc1ccc(C=O)c(C)c1 [OLI0030, 2,4-dimethyl benzaldehyde] | Mild Activator (mild activators yield an increase in neuronal activity that is between 20 and 40 spk/sec over baseline neuronal activity) | –
CCCC(=O)CC [OLI0035, 3-hexanone] | Mild Activator (mild activators yield an increase in neuronal activity that is between 20 and 40 spk/sec over baseline neuronal activity) | –
C/C=C(\C)C(=O)OC(C)C [OLI0057, isopropyl tiglate] | Mild Activator (mild activators yield an increase in neuronal activity that is between 20 and 40 spk/sec over baseline neuronal activity) | –
CCOC(=O)CCC(C)=O [OLI0047, ethyllevulinate] | Mild Activator (mild activators yield an increase in neuronal activity that is between 20 and 40 spk/sec over baseline neuronal activity) | –
C=CC(=O)CC [OLI0023, ethylvinylketone] | Moderate Activator (Moderate activators yield an increase in neuronal activity that is between 40 and 60 spk/sec over baseline neuronal activity) | –
CCCCCC=O [OLI0051, hexanal] | Mild Activator (mild activators yield an increase in neuronal activity that is between 20 and 40 spk/sec over baseline neuronal activity) | –
COC(=O)CC(C)C [OLI0058, methyl isovalerate] | Mild Activator (mild activators yield an increase in neuronal activity that is between 20 and 40 spk/sec over baseline neuronal activity) | –
